Patent publication US20260217687A1 (NeoPhore Limited, priority 2023, published 2026)

What follows are molecules tested against T1, recombinant N-terminal MLH1 (residues 15-340) (Homo sapiens, UniProt P40692) (assay: Fluorescence Polarisation Assay for MLH1). Conditions: 100 nM N-terminal MLH1, 5 nM probe compound.
T1 construct: recombinant N-terminal MLH1 (residues 15-340)
T1 sequence (P40692 15-340): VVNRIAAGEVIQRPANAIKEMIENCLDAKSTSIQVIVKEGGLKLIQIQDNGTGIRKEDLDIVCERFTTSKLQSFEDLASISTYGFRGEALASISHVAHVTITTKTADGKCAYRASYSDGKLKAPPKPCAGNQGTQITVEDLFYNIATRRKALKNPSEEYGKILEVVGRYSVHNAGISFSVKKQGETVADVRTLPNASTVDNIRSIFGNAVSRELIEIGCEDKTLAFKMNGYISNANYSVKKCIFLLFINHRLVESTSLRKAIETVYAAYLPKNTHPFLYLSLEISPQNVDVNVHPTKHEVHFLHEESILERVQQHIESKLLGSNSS
Assay type: binding
Procedure: Fluorescence Polarisation Assay for MLH1
Test compounds, as 10 mM DMSO stocks, were dispensed into a 384-well Low Flange Black Flat Bottom Polystyrene Non-binding Surface plate (Corning®, item number 3575) using a Labcyte Echo acoustic liquid handler. […] 20 μL of a 2× solution (200 nM) of recombinant N-terminal MLH1 (residues 15-340) in assay buffer (25 mM HEPES, pH 7.5, 250 mM NaCl, 10 mM MgCl2, 0.01% Triton X-100, 5 mM Dithiothreitol) was added to all wells in columns 1-23 and 20 μL assay buffer was added to all wells in column 24 using an E1-ClipTip pipette (ThermoFisher). Plates were centrifuged for 1 minute at 250 xg and were incubated at room temperature for 30 minutes prior to the addition of 20 μL of 2×(10 nM) of 5-((5-(4-((2-(2-(Benzyloxy)-4,6-dihydroxybenzoyl)isoindolin-5-yl)methyl)piperazin-1-yl)pentyl)carbamoyl)-2-(6-(dimethylamino)-3-(dimethyliminio)-3H-xanthen-9-yl)benzoate (referred to hereinafter as “probe compound”) in assay buffer (prepared from a 1 mM DMSO stock) with an E1-ClipTip pipette (ThermoFisher). The final concentration of N-terminal MLH1 was 100 nM and the final concentration of the probe compound was 5 nM. Compound plates were centrifuged for 1 minute at 250 xg for 1 minute and immediately read on a PheraStar FSX (fitted with 384-well aperture spoon and 590 675 675 FP optic module). The gain and focus were adjusted before each plate was read so that the polarisation of a no enzyme control (column 24) was equal to 35 mP. Data were normalised against the no inhibitor controls (column 23) and no enzyme controls (column 24).

SMILES	IC50 [nM]
CN1CCC(Oc2ccc3c(c2)CCN(C(=O)c2c(O)cc(C(F)F)cc2OCc2ccccc2)C3)CC1 [Example 4.45, (2-(Benzyloxy)-4-(difluoromethyl)-6-hydroxyphenyl)(6-((1-methylpiperidin-4-yl)oxy)-3,4-dihydroisoquinolin-2(1H)-yl)methanone]	100 to 1000
CN1CCC(Oc2ccc3c(c2)CN(C(=O)c2c(O)cc(C(F)F)cc2OCc2ccccc2)CC3)CC1 [Example 4.44, (2-(Benzyloxy)-4-(difluoromethyl)-6-hydroxyphenyl)(7-((1-methylpiperidin-4-yl)oxy)-3,4-dihydroisoquinolin-2(1H)-yl)methanone]	100 to 1000
CN1CC[C@@H](Nc2cccc3c2CN(C(=O)c2c(O)cc(C#N)cc2OCc2ccccc2)C3)C1=O [Example 10.28, (R)-3-(benzyloxy)-5-hydroxy-4-(4-((1-methyl-2-oxopyrrolidin-3-yl)amino)isoindoline-2-carbonyl)benzonitrile]	100 to 1000
CN1CC[C@H](Oc2ccc3c(c2)CN(C(=O)c2c(O)cc(C#N)cc2OCc2ccccc2)C3)C1 [Example 10.31, (S)-3-(Benzyloxy)-5-hydroxy-4-(5-((1-methylpyrrolidin-3-yl)oxy)isoindoline-2-carbonyl)benzonitrile]	100 to 1000
O=C(c1c(O)cc(C(F)F)cc1OCc1ccccc1)N1CCc2cc(NC3CCOC3)ccc21 (single isomer, unassigned) [Example 27.5b, (S)-(2-(Benzyloxy)-4-(difluoromethyl)-6-hydroxyphenyl)(5-((tetrahydrofuran-3-yl)amino)indolin-1-yl)methanone or (R)-(2-(Benzyloxy)-4-(difluoromethyl)-6-hydroxyphenyl)(5-((tetrahydrofuran-3-yl)amino)indolin-1-yl)methanone]	100 to 1000
N#Cc1cc(O)c(C(=O)N2CCc3ccc(NC4CCOC4)cc32)c(OCc2ccccc2)c1 (stereo not drawn) [Example 27.3, 3-(Benzyloxy)-5-hydroxy-4-(6-((tetrahydrofuran-3-yl)amino)indoline-1-carbonyl)benzonitrile]	1000 to 10000
N#Cc1cc(O)c(C(=O)N2Cc3ccccc3C2)c(OCc2ccccc2)c1 [Example 12.4, 3-(Benzyloxy)-5-hydroxy-4-(isoindoline-2-carbonyl)benzonitrile]	1000 to 10000
CN(C)CCOc1cc2c(c(N[C@@H]3CCOC3)c1)CN(C(=O)c1c(O)cc(Cl)cc1OCc1ccccc1)CC2 [Example 21, (R)-(2-(Benzyloxy)-4-chloro-6-hydroxyphenyl)(6-(2-(dimethylamino)ethoxy)-8-((tetrahydrofuran-3-yl)amino)-3,4-dihydroisoquinolin-2(1H)-yl)methanone]	< 100
CN1CCC(Oc2ccc3c(c2)CN(C(=O)c2c(O)cc(C#N)cc2OCc2ccccc2)C3)CC1 [Example 10.33, 3-(Benzyloxy)-5-hydroxy-4-(5-((1-methylpiperidin-4-yl)oxy)isoindoline-2-carbonyl)benzonitrile]	100 to 1000
CN1CC(Oc2ccc3c(c2)CN(C(=O)c2c(O)cc(C#N)cc2OCc2ccccn2)C3)C1 [Example 10.37, 3-Hydroxy-4-(5-((1-methylazetidin-3-yl)oxy)isoindoline-2-carbonyl)-5-(pyridin-2-ylmethoxy)benzonitrile]	1000 to 10000
CN1CCC(Oc2ccc3c(c2)CN(C(=O)c2c(O)cc(C(F)F)cc2OCc2ccccn2)C3)CC1 [Example 4.58, (4-(Difluoromethyl)-2-hydroxy-6-(pyridin-2-ylmethoxy)phenyl)(5-((1-methylpiperidin-4-yl)oxy)isoindolin-2-yl)methanone]	100 to 1000
O=C(c1c(O)cc(C(F)F)cc1OCc1ccccc1)N1CCc2ccncc21 [Example 27.23, (2-(Benzyloxy)-4-(difluoromethyl)-6-hydroxyphenyl)(2,3-dihydro-1H-pyrrolo[2,3-c]pyridin-1-yl)methanone]	1000 to 10000
CNc1cc(OCCN(C)C)cc2c1CN(C(=O)c1c(O)cc(C(F)F)cc1OCc1ccccc1)CC2 [Example 4.73, (2-(Benzyloxy)-4-(difluoromethyl)-6-hydroxyphenyl)(6-(2-(dimethylamino)ethoxy)-8-(methylamino)-3,4-dihydroisoquinolin-2(1H)-yl)methanone]	100 to 1000
CN1CC[C@H](Nc2cccc3c2CN(C(=O)c2c(O)cc(C(F)F)cc2OCc2ccccc2)C3)C1=O [Example 4.12, (S)-3-((2-(2-(Benzyloxy)-4-(difluoromethyl)-6-hydroxybenzoyl)isoindolin-4-yl)amino)-1-methylpyrrolidin-2-one]	100 to 1000
N#Cc1cc(O)c(C(=O)N2Cc3cccc(NCc4cocn4)c3C2)c(OCc2ccccc2)c1 [Example 10.9, 3-(Benzyloxy)-5-hydroxy-4-(4-((oxazol-4-ylmethyl)amino)isoindoline-2-carbonyl)benzonitrile]	100 to 1000
CN1CCC(Oc2ccc3c(c2)CCN(C(=O)c2c(O)cc(C(F)F)cc2OCc2ccccc2)CC3)CC1 [Example 27.7, (2-(Benzyloxy)-4-(difluoromethyl)-6-hydroxyphenyl)(7-((1-methylpiperidin-4-yl)oxy)-1,2,4,5-tetrahydro-3H-benzo[d]azepin-3-yl)methanone]	100 to 1000
CN1CC[C@H](Nc2cccc3c2CN(C(=O)c2c(O)cc(C#N)cc2OCc2ccccc2)C3)C1=O [Example 10.27, (S)-3-(Benzyloxy)-5-hydroxy-4-(4-((1-methyl-2-oxopyrrolidin-3-yl)amino)isoindoline-2-carbonyl)benzonitrile]	100 to 1000
O=C(c1c(O)cc(C(F)F)cc1OCc1ccccn1)N1CCc2cccc(N[C@H]3CCOC3)c2C1 [Example 4.10, (S)-(4-(Difluoromethyl)-2-hydroxy-6-(pyridin-2-ylmethoxy)phenyl)(8-((tetrahydrofuran-3-yl)amino)-3,4-dihydroisoquinolin-2(1H)-yl)methanone]	100 to 1000
COCCOc1ccc2c(c1)CN(C(=O)c1c(O)cc(C#N)cc1OCc1ccccc1)C2 [Example 10.35, 3-(Benzyloxy)-5-hydroxy-4-(5-(2-methoxyethoxy)isoindoline-2-carbonyl)benzonitrile]	100 to 1000
CN1CCC(Oc2ccc3c(c2)CCN(C(=O)c2c(O)cc(C#N)cc2OCc2ccccc2)CC3)CC1 [Example 27.6, 3-(Benzyloxy)-5-hydroxy-4-(7-((1-methylpiperidin-4-yl)oxy)-2,3,4,5-tetrahydro-1H-benzo[d]azepine-3-carbonyl)benzonitrile hydroformate]	1000 to 10000
CN(C)CCOc1cc2c(c(N[C@H]3CCOC3)c1)CN(C(=O)c1c(O)cc(C#N)cc1OCc1ccccc1)CC2 [Example 15, (S)-3-(Benzyloxy)-4-(6-(2-(dimethylamino)ethoxy)-8-((tetrahydrofuran-3-yl)amino)-1,2,3,4-tetrahydroisoquinoline-2-carbonyl)-5-hydroxybenzonitrile]	< 100
CN1CCC(Oc2cc3c(c(N[C@@H]4CCOC4)c2)CN(C(=O)c2c(O)cc(C(F)F)cc2OCc2ccccc2)C3)CC1 [Example 4.63, (R)-(2-(Benzyloxy)-4-(difluoromethyl)-6-hydroxyphenyl)(6-((1-methylpiperidin-4-yl)oxy)-4-((tetrahydrofuran-3-yl)amino)isoindolin-2-yl)methanone]	100 to 1000
O=C(c1c(O)cc(C(F)F)cc1OCc1ccccc1)N1CCc2cccnc21 [Example 27.15, (2-(Benzyloxy)-4-(difluoromethyl)-6-hydroxyphenyl)(2,3-dihydro-1H-pyrrolo[2,3-b]pyridin-1-yl)methanone]	1000 to 10000
O=C(c1c(O)cc(C(F)F)cc1OCc1ccccc1)N1CCc2cccc(N[C@H]3CCOC3)c2C1 [Example 4.6, (S)-(2-(Benzyloxy)-4-(difluoromethyl)-6-hydroxyphenyl)(8-((tetrahydrofuran-3-yl)amino)-3,4-dihydroisoquinolin-2(1H)-yl)methanone]	100 to 1000
O=C(c1c(O)cc(C(F)F)cc1OCc1ccccc1)N1CCc2ncccc21 [Example 27.22, (2-(Benzyloxy)-4-(difluoromethyl)-6-hydroxyphenyl)(2,3-dihydro-1H-pyrrolo[3,2-b]pyridin-1-yl)methanone]	1000 to 10000
CN1CC[C@@H](Oc2ccc3c(c2)CN(C(=O)c2c(O)cc(C(F)F)cc2OCc2ccccc2)C3)C1 [Example 4.55, (R)-(2-(Benzyloxy)-4-(difluoromethyl)-6-hydroxyphenyl)(5-((1-methylpyrrolidin-3-yl)oxy)isoindolin-2-yl)methanone]	< 100
CN(C)CCOc1cccc2c1CCN2C(=O)c1c(O)cc(C#N)cc1OCc1ccccc1 [Example 27.12, 3-(Benzyloxy)-4-(4-(2-(dimethylamino)ethoxy)indoline-1-carbonyl)-5-hydroxybenzonitrile]	1000 to 10000
